Key:
[1] = Self assembly property of compound assessed as Nilered-compound complex formation by measuring critical micellar concentration at 638 nm by Nile red dye based fluorescence analysis; format: physicochemical
[2] = system: Mus musculus; assay: Relative hypoglycemic rate in KKAy diabetic mouse model assessed as reduction in PBG level by measuring fold change at 1.6 mg/kg, po co-administered with maltose and measured after 30 mins by glucometer relative to miglitol; format: functional; details: 0.5 h
[3] = system: Mus musculus; assay: Hypoglycemic activity in C57BL/6J mouse assessed as molar reduction in PBG level at 1.6 mg/kg, po co-administered with maltose and measured after 30 mins by glucometer relative to control; format: functional; design: scale not given: the % may be the effect or the level left; details: 0.5 h
[4] = system: Aspergillus niger; assay: Potency index, ratio of 1-deoxynojirimycin Ki to test compound Ki for inhibition of Aspergillus niger Alpha-glucosidase incubated for 10 mins by Lineweaver-Burk plot analysis
[5] = system: Mus musculus; assay: Hypoglycemic activity in KKAy diabetic mouse model assessed as molar decrease in PBG level at 1.6 mg/kg, po co-administered with maltose and measured after 30 mins by glucometer relative to control; format: functional; design: scale not given: the % may be the effect or the level left; details: 0.5 h
[6] = system: Mus musculus; assay: Binding affinity to mouse alpha-glucosidase assessed as fluorescence intensity at 2 x 10^-4 M administered as Nile red complex by fluorescence spectra analysis (reference value: 3586); details: dose 2.0 10^-4M
[7] = system: Mus musculus; assay: Hypoglycemic activity in C57BL/6J mouse assessed as decrease in PBG level at 0.4 mg/kg, po co-administered with maltose and measured after 30 mins by glucometer relative to control; format: functional; design: scale not given: the % may be the effect or the level left; details: 0.5 h
[8] = Self assembly property of the compound in water assessed as diameter at 1 x 10^-4 M by transmission electron microscopic analysis; format: physicochemical; details: buffer, 100 µM; dose 1 10^-4M
[9] = Self assembly property of the compound assessed as diameter at 5 x 10^-5 mol/L by dynamic light scattering spectrometric analysis; format: physicochemical; details: 50 µM; dose 5 10^-5mol/L
[10] = Self assembly property of the compound assessed as diameter at 1 x 10^-5 mol/L by dynamic light scattering spectrometric analysis; format: physicochemical; details: 10 µM; dose 1 10^-5mol/L
[11] = system: Mus musculus; assay: Hypoglycemic activity in KKAy diabetic mouse model assessed as decrease in PBG level at 1.6 mg/kg, po co-administered with maltose and measured after 60 mins by glucometer relative to control; format: functional; design: scale not given: the % may be the effect or the level left; details: 1 h
[12] = Inhibition of Aspergillus niger Alpha-glucosidase incubated for 10 mins by Lineweaver-Burk plot analysis
[13] = Drug uptake in C57/6J mouse lung assessed as increase in fluorescence at 5 x 10^-5M, po administered as Nile red complex and measured after 4 hrs by fluorescence imaging analysis; format: ADME, organism-based; details: in vivo, dose 5 10^-5M
[14] = system: Mus musculus; assay: Hypoglycemic activity in KKAy diabetic mouse model assessed as blood glucose level at 1.6 mg/kg, po co-administered with maltose and measured after 60 mins by glucometer (reference value: 582.6 +/- 22.9 mg/dl); format: functional; details: 1 h
[15] = Drug uptake in C57/6J mouse spleen assessed as increase in fluorescence at 5 x 10^-5M, po administered as Nile red complex and measured after 4 hrs by fluorescence imaging analysis; format: ADME, organism-based; details: in vivo, dose 5 10^-5M
[16] = Self assembly property of the compound assessed as diameter at 1 x 10^-4 mol/L by dynamic light scattering spectrometric analysis; format: physicochemical; details: 100 µM; dose 1 10^-4mol/L
[17] = system: Mus musculus; assay: Hypoglycemic activity in KKAy diabetic mouse model assessed as blood glucose level at 1.6 mg/kg, po co-administered with maltose and measured after 15 mins by glucometer (reference value: 582.6 +/- 22.9 mg/dl); format: functional; details: 0.25 h
[18] = system: Mus musculus; assay: Hypoglycemic activity in C57BL/6J mouse assessed as decrease in PBG level at 0.4 mg/kg, po co-administered with maltose and measured after 15 mins by glucometer relative to control; format: functional; design: scale not given: the % may be the effect or the level left; details: 0.25 h
[19] = Toxicity in C57BL/6J mouse assessed as effect on lung morphology at 1.6 mg/kg, po co-administered with maltose for 7 days by Hematoxylin and eosin staining based analysis; format: organism-based; details: in vivo, 168 h, time 7 day
[20] = system: Mus musculus; assay: Relative hypoglycemic rate in C57BL/6J mouse assessed as reduction in PBG level by measuring fold change at 1.6 mg/kg, po co-administered with maltose and measured after 30 mins by glucometer relative to miglitol; format: functional; details: 0.5 h
[21] = Toxicity in C57BL/6J mouse assessed as effect on liver morphology at 1.6 mg/kg, po co-administered with maltose for 7 days by Hematoxylin and eosin staining based analysis; format: organism-based; details: in vivo, 168 h, time 7 day
[22] = system: Mus musculus; assay: Hypoglycemic activity in KKAy diabetic mouse model assessed as blood glucose level at 1.6 mg/kg, po co-administered with maltose and measured after 120 mins by glucometer (reference value: 582.6 +/- 22.9 mg/dl); format: functional; details: 2 h
[23] = Drug uptake in C57/6J mouse heart assessed as increase in fluorescence at 5 x 10^-5M, po administered as Nile red complex and measured after 4 hrs by fluorescence imaging analysis; format: ADME, organism-based; details: in vivo, dose 5 10^-5M
[24] = system: Mus musculus; assay: Hypoglycemic activity in C57BL/6J mouse assessed as blood glucose level at 1.6 mg/kg, po co-administered with maltose and measured after 15 mins by glucometer (380.8 +/- 20.6 mg/dL); format: functional; details: 0.25 h
[25] = system: Mus musculus; assay: Hypoglycemic activity in C57BL/6J mouse assessed as blood glucose level at 0.4 mg/kg, po co-administered with maltose and measured after 30 mins by glucometer (380.8 +/- 20.6 mg/dL); format: functional; details: 0.5 h
[26] = system: Mus musculus; assay: Hypoglycemic activity in C57BL/6J mouse assessed as decrease in PBG level at 1.6 mg/kg, po co-administered with maltose and measured after 15 mins by glucometer relative to control; format: functional; design: scale not given: the % may be the effect or the level left; details: 0.25 h
[27] = system: Mus musculus; assay: Hypoglycemic activity in C57BL/6J mouse assessed as reduction in PBG level measured per DNJ unit at 0.4 mg/kg, po co-administered with maltose and measured at 15 to 30 mins by glucometer relative to control; format: functional; design: scale not given: the % may be the effect or the level left; details: time 15-30 min
[28] = Self assembly property of the compound in water assessed as mean diameter at 1 x 10^-4 M by dynamic light scattering spectrometric analysis; format: physicochemical; details: buffer, 100 µM; dose 1 10^-4M
[29] = system: Oryza sativa; assay: Potency index, ratio of miglitol Ki to test compound Ki for inhibition of rice Alpha-glucosidase incubated for 10 mins by Lineweaver-Burk plot analysis
[30] = Drug uptake in C57/6J mouse small intestine assessed as increase in fluorescence at 5 x 10^-5M, po administered as Nile red complex and measured upto 2 hrs by fluorescence imaging analysis; format: ADME, organism-based; details: in vivo, dose 5 10^-5M
[31] = Binding affinity to mouse alpha-glucosidase assessed as DNJ binding constant at 2 x 10^-4 M administered as Nile red complex in presence of DNJ by fluorescence spectra analysis
[32] = system: Mus musculus; assay: Hypoglycemic activity in KKAy diabetic mouse model assessed as blood glucose level at 1.6 mg/kg, po co-administered with maltose and measured after 30 mins by glucometer (reference value: 582.6 +/- 22.9 mg/dl); format: functional; details: 0.5 h
[33] = Binding affinity to mouse alpha-glucosidase assessed as miglitol binding constant at 200 uM administered as Nile red complex in presence of miglitol by fluorescence spectra analysis
[34] = Stability of compound in simulated intestinal fluid at 2 x 10^-4 M administered as Nile red complex by fluorescence spectra analysis; format: ADME; details: simulated gi fluid, 200 µM; dose 2 10^-4M

In the case of `CCCCCCCCCCCCCCCCCCNC(=O)CN(Cc1cn(CCCCCCN2C[C@H](O)[C@@H](O)[C@H](O)[C@H]2CO)nn1)C(=O)CN(Cc1cn(CCCCCCN2C[C@H](O)[C@@H](O)[C@H](O)[C@H]2CO)nn1)C(=O)CN(Cc1cn(CCCCCCN2C[C@H](O)[C@@H](O)[C@H](O)[C@H]2CO)nn1)C(=O)CN(Cc1cn(CCCCCCN2C[C@H](O)[C@@H](O)[C@H](O)[C@H]2CO)nn1)C(C)=O`, the CAC [1] is reported as 8.31 10^-5M, the “fold change (FC)” value [2] is reported as 3 and the Activity [3] is reported as 11.5%. The Ratio Ki [4] was 21.2, the Activity [5] was 7.6% and the Flu intensity [6] was 1750. It also gave an Activity [7] of 18.6%, an Activity [8] of 96 nm and an Activity [9] of 233 nm. It also gave an Activity [10] of 179 nm, an Activity [11] of 22.1% and a Ki [12] of 170 nM. The Drug uptake [13] was “Not Active”, the Activity [14] was 432.6 mg/dL and the Drug uptake [15] was “Not Active”. It also gave an Activity [16] of 276 nm, an Activity [17] of 327.6 mg/dL and an Activity [18] of 6.5%. The Activity [19] was “Non-Toxic”, the “fold change (FC)” value [20] was 1.8 and the Activity [21] was “Non-Toxic”. For the same molecule, the Activity [22] was 351 mg/dL, the Drug uptake [23] was “Not Active” and the Activity [24] was 302.04 mg/dL. The Activity [25] was 309.9 mg/dL, the Activity [26] was 18.8% and the Activity [27] was 22.2%. For the same molecule, the Activity [28] was 283 nm, the Ratio Ki [29] was 6.7 and the Drug uptake [30] was “Active”. It also gave a Ka [31] of 308 M⁻¹, an Activity [32] of 419.7 mg/dL and a Ka [33] of 205 M⁻¹. The Stability [34] was “Stable”.
